The target in this assay is T1, human TLX (Homo sapiens, UniProt Q9Y466).
T1 construct: expressed in transfected cells; host or cells: HEK293T
Description: Gal4 hybrid reporter gene assay (TLX modulation). Format: cell-based. The conditions noted are these: for EC50: Gal4-TLX hybrid reporter in HEK293T cells, 16 h incubation; for relative reporter activity: DMSO control = 1. Also on record: key to relative reporter activity: fraction of DMSO control (DMSO = 1). How it is done:
In the Tables, the TLX relative reporter activity is expressed as EC50 (in µM) for each listed compound. "EC50" refers to a measure of the concentration of a compound which induces a biological response halfway between the baseline and maximum after a specified exposure time. […] The EC50 is measured via a hybrid reporter gene assay, employing the transfection of a reporter (firefly luciferase with Gal4 response element), a control gene (Renilla luciferase), a transcriptional activator (Gal4-VP16) and a hybrid receptor consisting of the TLX ligand binding domain (LBD) and the Gal4 DNA binding domain (DBD).
Hybrid reporter gene assays. […] After 24 h, medium was changed to Opti-MEM without supplements and cells were transiently transfected using Lipofectamine LTX reagent (Invitrogen, Carlsbad, CA, USA) according to the manufacturer's protocol. Five hours after transfection, cells were incubated with the test compounds in Opti-MEM supplemented with penicillin (100 U/mL), streptomycin (100 µg/mL) and 0.1% DMSO for 16 h before luciferase activity was measured using the Dual-Glo Luciferase Assay System (Promega) according to the manufacturer's protocol on a Tecan Spark luminometer (Tecan Deutschland GmbH, Crailsheim, Germany). Firefly luminescence was divided by Renilla luminescence and multiplied by 1000 resulting in relative light units (RLU) to normalize for transfection efficiency and cell growth. Fold activation was obtained by dividing the mean RLU of test compound by the mean RLU of the untreated control. All samples were tested in at least three biologically independent experiments in duplicates. For dose-response curve fitting and calculation of EC50 values, the equation "[Agonist] vs. response -- Variable slope (four parameters)" was used in GraphPad Prism (version 7.00, GraphPad Software, La Jolla, CA, USA).
Background: Reporter assays use an easily measured gene product as a stand-in for the process of interest.

The mark [1] stands for this setting: minimal remaining or maximum reporter activity after treatment, in brackets below the EC50, <1 agonism, >1 inverse agonism.

One may read the EC50 as the concentration giving half of the maximal effect.

T1 sequence (Q9Y466 155-383 limits assumed): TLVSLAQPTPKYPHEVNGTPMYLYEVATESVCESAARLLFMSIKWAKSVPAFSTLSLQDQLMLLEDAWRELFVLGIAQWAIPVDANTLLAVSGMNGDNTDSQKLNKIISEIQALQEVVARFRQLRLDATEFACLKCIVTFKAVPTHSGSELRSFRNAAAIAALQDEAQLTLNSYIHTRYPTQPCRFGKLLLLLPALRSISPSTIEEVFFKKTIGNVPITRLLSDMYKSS

With `Cc1cc(-c2cc(NC(=O)c3cc(C)[nH]n3)cc(C(F)(F)F)c2)ccn1` [compound 86, 5-methyl-N-(3-(2-methylpyridin-4-yl)-5-(trifluoromethyl)phenyl)-1H-pyrazole-3-carboxamide], the midpoint of the response, the EC50, lay at 3.3 ± 0.7 µM. For the same molecule, the relative reporter activity under setting [1] was determined as 0.32±0.03.
Taken in the same sequence, the figures for `Nc1cc(-n2cccc2)cc(C(F)(F)F)c1` [compound 34, 3-(1H-pyrrol-1-yl)-5-(trifluoromethyl)aniline] were 15 ± 7 µM and 0.23±0.15.
In turn, `Cc1cn(-c2cc(NC(=O)c3ccc(Cl)c(Cl)c3)cc(C(F)(F)F)c2)cn1` [compound 16, 3,4-dichloro-N-(3-(4-methyl-1H-imidazol-1-yl)-5-(trifluoromethyl)phenyl)-benzamide] gave an EC50 of 2.1 ± 0.9 µM. The molecule also had a relative reporter activity under setting [1] of 0.33±0.12.
On to `Nc1cc(-c2ccn3ccnc3c2)cc(C(F)(F)F)c1` [compound 94, 3-(imidazo[1,2-a]pyridin-7-yl)-5-(trifluoromethyl)aniline], for which a half-maximal response (EC50) required 3.7 ± 0.6 µM.
Under “at 30 µM”, `Cc1cc(-c2cc(N)cc(C(F)(F)F)c2)cs1` [compound 59, 3-(5-methylthiophen-3-yl)-5-(trifluoromethyl)aniline] showed a relative reporter activity of 2.8±0.5.
Turning to `O=C(Nc1cc(-n2cnc3ccccc32)cc(C(F)(F)F)c1)c1ccnc2ccccc12` [compound 36, N-(3-(1H-benzo[d]imidazol-1-yl)-5-(trifluoromethyl)phenyl)quinoline-4-carboxamide], the relative reporter activity result (at 10 µM) was “(0.24±0.04 at 10 µM”.
The molecule `Nc1cc(-c2cncnc2)cc(C(F)(F)F)c1` [compound 66, 3-(pyrimidin-5-yl)-5-(trifluoromethyl)aniline] registered an EC50 of 2.1 ± 0.5 µM. Under setting [1], this molecule showed a relative reporter activity of 0.40±0.06.
On to `Cn1cc(-c2cc(N)cc(C(F)(F)F)c2)c2ccccc21` [compound 51, 3-(1-Methyl-1H-indol-3-yl)-5-(trifluoromethyl)aniline], for which the EC50 is 9.1 ± 0.7 µM.
In the case of `Cc1cc(-c2cc(NC(=O)C3CCCNC3)cc(C(F)(F)F)c2)ccn1` (centres unmarked) [compound 85, N-(3-(2-methylpyridin-4-yl)-5-(trifluoromethyl)phenyl)piperidine-3-carboxamide], the relative reporter activity result (at 20 µM) is recorded as “(0.15±0.01 at 20 µM)”.
In the case of `Cn1ccc2c(-c3cc(N)cc(C(F)(F)F)c3)cccc21` [compound 100, 3-(1-Methyl-1H-indol-4-yl)-5-(trifluoromethyl)aniline], it took 18 ± 1 µM to reach a half-maximal effect (EC50). The molecule also displayed a relative reporter activity (at 10 µM) of 0.55±0.06.
For `Cc1cn(-c2cc(NC(=O)c3cccc4ccccc34)cc(C(F)(F)F)c2)cn1` [compound 6, N-(3-(4-methyl-1H-imidazol-1-yl)-5-(trifluoromethyl)phenyl)-1-naphthamide], under “at 3 µM”, the relative reporter activity entry was “(0.79±0.03 at 3 µM)”.
Regarding `Cc1cc(-c2cc(NC(=O)C(O)(c3ccccc3)C3CCCC3)cc(C(F)(F)F)c2)ccn1` (centres unmarked) [compound 84, 2-cyclopentyl-2-hydroxy-N-(3-(2-methylpyridin-4-yl)-5-(trifluoromethyl)phenyl)-2-phenylacetamide], under “at 3 µM”, the relative reporter activity result is recorded as “(0.26±0.05 at 3 µM)”.
As for `Cc1cc(-c2cc(N)cc(C(F)(F)F)c2)nn1C` [compound 45, 3-(1,5-dimethyl-1H-pyrazol-3-yl)-5-(trifluoromethyl)aniline], the relative reporter activity entry (at 100 µM) was “(0.56±0.12 at 100 µM)”.
In the case of `Cc1nn(C)c(C)c1-c1cc(N)cc(C(F)(F)F)c1` [compound 41, 3-(trifluoromethyl)-5-(1,3,5-trimethyl-1H-pyrazol-4-yl)aniline], the midpoint of the response, the EC50, lay at 4.2 ± 0.9 µM. The relative reporter activity under setting [1] is 0.34±0.09.
In turn, `CC(=O)c1cc(-c2cc(N)cc(C(F)(F)F)c2)cs1` [compound 60, 1-(4-(3-amino-5-(trifluoromethyl)phenyl)thiophen-2-yl)ethan-1-one] registered an EC50 of 0.7 ± 0.3 µM. Further, the relative reporter activity under setting [1] worked out at 0.24±0.07.
`Cn1cc(-c2cc(N)cc(C(F)(F)F)c2)c2cccnc21` [compound 52, 3-(1-methyl-1H-pyrrolo[2,3-b]pyridin-3-yl)-5-(trifluoromethyl)aniline] returned an EC50 of 3.5 ± 0.8 µM.
Take `Cc1cc(-c2cc(NC(=O)c3ccnc4ccccc34)cc(C(F)(F)F)c2)ccn1` [compound 75, N-(3-(2-methylpyridin-4-yl)-5-(trifluoromethyl)phenyl)quinoline-4-carboxamide]: the response was half-maximal at 0.41 ± 0.11 µM (EC50). Further, the relative reporter activity under setting [1] stood at 0.26±0.05.
Taken in the same sequence, the figures for `Cn1cc(-c2cc(N)cc(C(F)(F)F)c2)cn1` [compound 38, 3-(1-methyl-1H-pyrazol-4-yl)-5-(trifluoromethyl)aniline] were 9.5 ± 4.4 µM and 0.43±0.11.
The molecule `Nc1cc(-c2cscn2)cc(C(F)(F)F)c1` [compound 63, 3-(thiazol-4-yl)-5-(trifluoromethyl)aniline] gave a concentration giving a half-maximal response (EC50) of 11 ± 3 µM. Further, the relative reporter activity under setting [1] was determined as 0.58±0.10.
Turning to `COC(=O)c1ccc(-c2cc(N)cc(C(F)(F)F)c2)s1` [compound 58, methyl 5-(3-amino-5-(trifluoromethyl)phenyl)thiophene-2-carboxylate], the EC50 worked out at 3.5 ± 1.8 µM.
Turning to `Cn1ncc2cc(-c3cc(N)cc(C(F)(F)F)c3)ccc21` [compound 97, 3-(1-methyl-1H-indazol-5-yl)-5-(trifluoromethyl)aniline], the EC50 is 1.6 ± 0.9 µM.
`Cc1cc(-c2cc(N)cc(Cl)c2Cl)ccn1` [compound 114, 3,4-dichloro-5-(2-methylpyridin-4-yl)aniline] yielded an EC50 of 9.6 ± 0.7 µM.
On to `Cc1cn(-c2cc(NC(=O)c3ccncc3)cc(C(F)(F)F)c2)cn1` [compound 11, N-(3-(4-methyl-1H-imidazol-1-yl)-5-(trifluoromethyl)phenyl)isonicotinamide], for which, for the setting “at 20 µM”, the relative reporter activity result was “(0.41±0.05 at 20 µM)”.
Regarding `C=C(C(=O)Nc1cc(-c2ccnc(C)c2)cc(C(F)(F)F)c1)c1ccc2cc(OC)ccc2c1` [compound 83, 2-(6-methoxynaphthalen-2-yl)-N-(3-(2-methylpyridin-4-yl)-5-(trifluoromethyl)-phenyl)propenamide], the relative reporter activity result (at 10 µM) was “(0.66±0.07 at 10 µM)”.
For the molecule `Cc1ncc(-c2cc(N)cc(C(F)(F)F)c2)cn1` [compound 68, 3-(2-methylpyrimidin-5-yl)-5-(trifluoromethyl)aniline], it took 15 ± 6 µM to reach a half-maximal effect (EC50). This molecule gave a relative reporter activity under setting [1] of 0.34±0.09.
As to `Cc1cnc(-c2cc(N)cc(C(F)(F)F)c2)s1` [compound 54, 3-(5-methylthiazol-2-yl)-5-(trifluoromethyl)aniline], where the note is “at 30 µM”, the relative reporter activity result was “(0.46±0.21 at 30 µM)”.
The molecule `CC(=O)c1cc(-c2cc(NC(=O)Cc3ccccc3Cl)cc(C(F)(F)F)c2)cs1` [compound 62, N-(3-(5-acetylthiophen-3-yl)-5-(trifluoromethyl)phenyl)-2-(2-chlorophenyl)-acetamide] registered a half-maximal effective concentration (EC50) of 0.36 ± 0.09 µM. Besides, the relative reporter activity under setting [1] is 0.27±0.03.
Regarding `Cn1cnc(-c2cc(N)cc(C(F)(F)F)c2)n1` [compound 44, 3-(1-methyl-1H-1,2,4-triazol-3-yl)-5-(trifluoromethyl)aniline], the relative reporter activity entry (at 100 µM) was “(0.63±0.04 at 100 µM)”.
With `Cc1ccc(-c2cc(N)cc(C(F)(F)F)c2)s1` [compound 55, 3-(5-methylthiophen-2-yl)-5-(trifluoromethyl)aniline], for the setting “at 30 µM”, the relative reporter activity is recorded as 2.2±0.6.

The values are drawn from patent EP4650002A1 (Ludwig-Maximilians-Universität, priority 2024, dated 2025).
